From US7125838B1, “Peptides containing N-substituted L-amino acids for preventing β-strand association” (Senexis Limited, priority 1999, dated 2006)
Non-standard residues stand in square brackets, D forms with d. Residues, ends and D or L forms follow the SMILES beside them. NMeR = CN[C@@H](CCCNC(=N)N)C(=O)O; NMeF = CN[C@@H](Cc1ccccc1)C(=O)O; NMeL = CN[C@@H](CC(C)C)C(=O)O

Columns and labels:
[1] = biological target: T1, synthetic peptide fragment corresponding to residues 11 to 25 of the Alzheimer's Aβ peptide (Homo sapiens, UniProt P05067); experiment: Thioflavin T fluorescence assay of Aβ peptide fragment aggregation into amyloid fibrils; type: biochemical
T1 construct: synthetic peptide fragment corresponding to residues 11 to 25 of the Alzheimer's Aβ peptide; host or cells: chemical synthesis (synthetic peptide)
Experimental: The capacity of Peptide X (SEQ ID NO:2) to inhibit the aggregation of a synthetic peptide fragment corresponding to residues 11 to 25 of the Alzheimer's Aβ peptide into amyloid fibrils was determined quantitatively using a standard assay based on the amyloid-dependent fluorescence of thioflavin T at 482 nm (Levine, 1993).
Peptide X (SEQ ID NO:2) was dissolved in water to a concentration of 10 mM (about 10 mg/ml). Alzheimer's Aβ peptide fragment, at a concentration of 50 μM (about 0.1 mg/ml) in 50 mM sodium acetate buffer (pH 5.0), was incubated at 25° C. in the absence or presence of Peptide X at concentrations ranging from 100 μM to 1 mM; the aggregation of the Aβ peptide fragment into insoluble β-fibres in the solutions was determined quantitatively after 20 minutes by measuring the fluorescence of […] added thioflavin T at 482 nm using an excitation wavelength of 440 nm.

[2] = Solubility in aqueous solutions; type: physicochemical; details: over a wide range of pH values, completely soluble
Excerpt: The two positively charged arginine side chains assist the peptide to penetrate cell membranes and the blood-brain barrier by making electrostatic interactions with the negatively charged phosphate head groups of their constituent phospholipid molecules, resulting in the formation of inverted micelles which carry the peptide molecules across these membranes.

Aβ peptide = experiment: Inhibition of Aβ peptide aggregation into β-sheets (method not described); type: biochemical

Row | Molecule | inhibition at 100 µM ([1]; 100 μM Peptide X, 50 μM Aβ fragment, 50 mM sodium acetate pH 5.0, 25° C., 20 minutes, thioflavin T at 482 nm) | disaggregation of preformed amyloid fibrils ([1]; Peptide X added to the Aβ peptide fragment after incubation) | reduction in Alzheimer's Aβ peptide aggregation (FIG. 6) ([1]; Peptide X concentration of 100 μM) | solubility [2] | solubility ([2]; approximate equivalent of 10 mM) | inhibiting Aβ peptide aggregation into β-sheets (Aβ peptide)
1 | CC(=O)N[C@@H](CCCNC(=N)N)C(=O)N(C)[C@@H](CCCNC(=N)N)C(=O)N[C@@H](CC(C)C)C(=O)N(C)[C@@H](CC(C)C)C(=O)N[C@@H](Cc1ccccc1)C(=O)N(C)[C@@H](Cc1ccccc1)C(N)=O [Peptide X, Nα-acetyl-(L-arginine)-(Nα-methyl-L-arginine)-(L-leucine)-(Nα-methyl-L-leucine)-(L-phenylalanine)-(Nα-methyl-L-phenylalanine)-NH2] (Ac-R[NMeR]L[NMeL]F[NMeF]-NH2) | > 70% | able to disaggregate preformed amyloid fibrils | 70% | ≥ 10 mM | ≥ 10000 µg/mL | 
2 | (L-arginine)-(L-lysine)-(L-valine)-(Nα-methyl-L-phenylalanine)-(L-tyrosine)-(L-threonine)-(L-tryptophan) [Arg-Lys-Val-mePhe-Tyr-Thr-Trp] |  |  |  |  |  | effective
